Calls of active or inactive are those of the source. The rule behind the calls is not given here.
Legend:
[1] = Hepatic extraction ratio in human liver microsomes preincubated for 5 mins followed by NADPH addition and measured for 45 mins by LC-MS analysis; assay type: ADME, Microsome; conditions: time 50 min, read-out: ERH
[2] = molecular target: T1, von Hippel-Lindau disease tumor suppressor/Polymerase acidic protein (Influenza A virus (A/Puerto Rico/8/1934(H1N1))) (UniProt P03433+P40337); assay: PROTAC activity at Influenza A virus A/WSN/33(H1N1) flag tagged Polymerase acidic protein/VHL (unknown origin) expressed in HEK293T cells assessed as degradation of PA expression at 0.02 to 10 uM incubated for 24 hrs by Western blotting analysis; assay type: cell-based; conditions: dose 0.02-10 µM
[3] = Stability in human plasma assessed as compound remaining measured after 15 mins by LC-MS/MS analysis; assay type: ADME, cell-free; conditions: read-out: Stability
Influenza A virus [4] = assay: Anti-influenza activity against Influenza A virus A/WSN/33(H1N1) infected in MDCK cells assessed as downregulation of nucleoprotein expression incubated for 24 hrs by Western blotting analysis; assay type: functional, organism-based
[5] = Half life in dog liver microsomes preincubated for 5 mins followed by NADPH addition and measured for 45 mins by LC-MS analysis; assay type: ADME, Canis lupus familiaris, Microsome; conditions: time 50 min
[6] = molecular target: T1, von Hippel-Lindau disease tumor suppressor/Polymerase acidic protein (Influenza A virus (A/Puerto Rico/8/1934(H1N1))); assay: PROTAC activity at Influenza A virus A/WSN/33(H1N1) flag tagged Polymerase acidic protein/VHL (unknown origin) expressed in HEK293T cells assessed as degradation of PA expression at 10 uM incubated for 24 hrs by Western blotting analysis; assay type: cell-based
[7] = Cytotoxicity against dog MDCK cells assessed as reduction in cell viability incubated for 48 hrs by CCK-8 assay; assay type: toxicity, cell-based, Canis lupus familiaris
[8] = molecular target: T1, von Hippel-Lindau disease tumor suppressor/Polymerase acidic protein (Influenza A virus (A/Puerto Rico/8/1934(H1N1))); assay: PROTAC activity at Influenza A virus A/WSN/33(H1N1) flag tagged Polymerase acidic protein/VHL (unknown origin) expressed in HEK293T cells assessed as degradation of PA expression at 10 uM incubated for 8 hrs by Western blotting analysis; assay type: cell-based
[9] = Half life in human liver microsomes preincubated for 5 mins followed by NADPH addition and measured for 45 mins by LC-MS analysis; assay type: ADME, Microsome; conditions: time 50 min
enterovirus D68 = assay: Antiviral activity against enterovirus D68 infected in RD cells assessed as inhibition of viral replication incubated for 24 hrs by CCK-8 assay; assay type: functional, organism-based
Enterovirus = assay: Antiviral activity against Enterovirus CV-A16 infected in RD cells assessed as inhibition of viral replication incubated for 24 hrs by CCK-8 assay; assay type: functional, organism-based
[10] = molecular target: Voltage-gated inwardly rectifying potassium channel KCNH2 (Homo sapiens, UniProt Q12809); assay: Inhibition of hERG; assay type: toxicity
[11] = Hepatic clearance in mouse liver microsomes preincubated for 5 mins followed by NADPH addition and measured for 45 mins by LC-MS analysis; assay type: ADME, Microsome; conditions: time 50 min
[12] = Stability in human plasma assessed as compound remaining measured after 5 mins by LC-MS/MS analysis; assay type: ADME, cell-free; conditions: read-out: Stability
Influenza B virus [13] = assay: Anti-influenza activity against Influenza B virus Victoria/2/87 infected in HEK293T cells assessed as reduction in virus-induced cytopathic effect incubated for 48 hrs by CCK-8 assay; assay type: functional, organism-based; conditions: Victoria/2/87, HEK-293T
[14] = molecular target: T1, von Hippel-Lindau disease tumor suppressor/Polymerase acidic protein (Influenza A virus (A/Puerto Rico/8/1934(H1N1))); assay: PROTAC activity at Influenza A virus A/WSN/33(H1N1) flag tagged Polymerase acidic protein/VHL (unknown origin) expressed in HEK293T cells assessed as degradation of PA expression at 5 uM incubated for 24 hrs in presence of 3-methyladenine by Western blotting analysis; assay type: cell-based
Influenza A virus [15] = assay: Anti-influenza activity against Influenza A virus A/PR/8/34 (H1N1) infected in MDCK cells assessed as inhibition of viral growth at 1 uM incubated for 48 hrs by luciferase assay relative to control; assay type: functional
[16] = Hepatic clearance in dog liver microsomes preincubated for 5 mins followed by NADPH addition and measured for 45 mins by LC-MS analysis; assay type: ADME, Canis lupus familiaris, Microsome; conditions: time 50 min
[17] = Cytotoxicity against human HEK293T cells assessed as reduction in cell viability incubated for 48 hrs by CCK-8 assay; assay type: toxicity, cell-based, HEK-293T
[18] = Hepatic extraction ratio in mouse liver microsomes preincubated for 5 mins followed by NADPH addition and measured for 45 mins by LC-MS analysis; assay type: ADME, Microsome; conditions: time 50 min, read-out: ERH
Influenza B virus [19] = assay: Anti-influenza activity against Influenza B virus Yamagata/16/88 infected in HEK293T cells assessed as reduction in virus-induced cytopathic effect incubated for 48 hrs by CCK-8 assay; assay type: functional, organism-based; conditions: Yamagata/16/88, HEK-293T
[20] = molecular target: T1, von Hippel-Lindau disease tumor suppressor/Polymerase acidic protein (Influenza A virus (A/Puerto Rico/8/1934(H1N1))); assay: PROTAC activity at Influenza A virus A/WSN/33(H1N1) flag tagged Polymerase acidic protein/VHL (unknown origin) expressed in HEK293T cells assessed as degradation of PA expression at 10 uM by Western blotting analysis; assay type: cell-based; conditions: TDE = time-dependent effect
[21] = molecular target: von Hippel-Lindau disease tumor suppressor/Polymerase basic protein 2 (Influenza A virus (strain A/Puerto Rico/8/1934 H1N1)) (UniProt P40337+P03428); assay: PROTAC activity at Influenza A virus A/WSN/33(H1N1) flag tagged Polymerase basic protein 2/VHL (unknown origin) expressed in HEK293T cells assessed as degradation of PB2 expression at 1 ug/ml incubated for 24 hrs by Western blotting analysis; assay type: cell-based; conditions: dose 1.0 µg/ml
[22] = molecular target: T1, von Hippel-Lindau disease tumor suppressor/Polymerase acidic protein (Influenza A virus (A/Puerto Rico/8/1934(H1N1))); assay: PROTAC activity at Influenza A virus A/WSN/33(H1N1) flag tagged Polymerase acidic protein/VHL (unknown origin) expressed in HEK293T cells assessed as degradation of PA expression incubated for 2 to 10 hrs in presence of CHX by Western blotting analysis; assay type: cell-based; conditions: time 2-10 hrs
[23] = molecular target: T1, von Hippel-Lindau disease tumor suppressor/Polymerase acidic protein (Influenza A virus (A/Puerto Rico/8/1934(H1N1))); assay: PROTAC activity at Influenza A virus A/WSN/33(H1N1) flag tagged Polymerase acidic protein/VHL (unknown origin) expressed in HEK293T cells assessed as degradation of PA expression at 10 uM incubated for 24 to 48 hrs by Western blotting analysis; assay type: cell-based; conditions: time 24-48 hrs
[24] = molecular target: T1, von Hippel-Lindau disease tumor suppressor/Polymerase acidic protein (Influenza A virus (A/Puerto Rico/8/1934(H1N1))); assay: PROTAC activity at Influenza A virus A/WSN/33(H1N1) flag tagged Polymerase acidic protein/VHL (unknown origin) expressed in HEK293T cells assessed as degradation of PA expression at 5 uM incubated for 24 hrs in presence of dipeptide RA by Western blotting analysis; assay type: cell-based
[25] = molecular target: T1, von Hippel-Lindau disease tumor suppressor/Polymerase acidic protein (Influenza A virus (A/Puerto Rico/8/1934(H1N1))); assay: PROTAC activity at Influenza A virus A/WSN/33(H1N1) flag tagged Polymerase acidic protein/VHL (unknown origin) expressed in HEK293T cells assessed as degradation of PA expression at 5 uM incubated for 24 hrs in presence of bortezomib by Western blotting analysis; assay type: cell-based
[26] = Stability in human plasma assessed as compound remaining by LC-MS/MS analysis; assay type: ADME, cell-free
Influenza A virus [27] = assay: Anti-influenza activity against Influenza A virus A/WSN/33(H1N1) infected in MDCK cells assessed as downregulation of nucleoprotein expression at 100 nM incubated for 24 hrs by Western blotting analysis relative to control; assay type: functional
[28] = Selectivity index, ratio of CC50 for cytotoxicity against human HEK293T cells to EC50 for anti-influenza activity against Influenza A virus A/WSN/33(H1N1) infected in HEK293T cells assessed as reduction in virus-induced cytopathic effect; assay type: toxicity, cell-based; conditions: read-out: Ratio CC50/EC50
[29] = Intrinsic clearance in dog liver microsomes preincubated for 5 mins followed by NADPH addition and measured for 45 mins by LC-MS analysis; assay type: ADME, Canis lupus familiaris, Microsome; conditions: time 50 min, read-out: CLH
[30] = Stability in human plasma assessed as compound remaining measured after 30 mins by LC-MS/MS analysis; assay type: ADME, cell-free; conditions: read-out: Stability

CC(C)(C)OC(=O)NCCCC[C@H](NC(=O)OC(C)(C)C)C(=O)NCCCCCCCC(=O)Nc1ccc(NC(=S)NC(=O)c2ccc(C(C)(C)C)cc2)cc1
hepatic extraction ratio at 0.75 h [1]: 0.588
Activity [2]: Active
remaining at 0.25 h [3]: 109%
Activity (Influenza A virus [4]): Dose-Dependent Effect
half-life [5]: 19.6 min
Activity [6]: Active
CC50 at 48 h [7]: > 200000 nM
Activity [8]: Active
half-life [9]: 12.7 min
Activity (enterovirus D68): Active
Activity (Enterovirus): Active
inhibition (INH) [10]: Not Active
CLhep predicted [11]: 58.8 mL/min/kg
remaining at 5 min [12]: 96.8%
EC50 (Influenza B virus [13]): 67 nM
Activity [14]: inactive
inhibition at 1 µM (Influenza A virus [15]): 96%
CLhep predicted [16]: 26.3 mL/min/kg
CC50 at 48 h [17]: > 100000 nM
hepatic extraction ratio at 0.75 h [18]: 0.654
EC50 (Influenza B virus [19]): 73 nM
Activity [20]: Tde
Activity [21]: inactive
Activity [22]: Active
Activity [23]: Active
Activity [24]: inactive
Activity [25]: inactive
Stability [26]: 100%
Activity (Influenza A virus [27]): 35%
selectivity ratio [28]: > 6670
CLint scaled [29]: 177 mL/min/kg
remaining at 0.5 h [30]: 108%
